± gives the standard deviation of the averaged measurements.
Legend:
Conditions in all cases: 72 h
[1] = system: MV4-11
How it was run: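 In 384-well plates holding acoustically pre-printed compounds at five tenfold doses from 1 to 10,000 nM, in duplicate, fifteen myeloid leukaemia cell lines were grown in RPMI 1640 for 72 h at 37 °C with 5% CO2. Luminescent ATP viability was scaled between vehicle and a positive control at 10 µM. The IC50 was then taken from log-logistic dose–response fits with four parameters.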

[2] = system: HL-60; test: cell viability (% survival relative to DMSO control); higher = less cytotoxic
How it was run: (§1)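 In 384-well plates, the full library was rescreened in duplicate on HL-60 cells in RPMI 1640 with 10% FBS, at 1–10,000 nM in five tenfold concentrations, for 72 h at 37 °C, 5% CO2. Each run also held DMSO or 100 nM of one of three metabolic inhibitors. Viability was measured by CellTiter-Glo and normalised to DMSO wells and to wells with proteasome inhibitor, present at 10 μM. Any area under the curve comes from four-parameter log-logistic fitting with drc and PharmacoGx.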

[3] = system: BV-173; test: cell viability (% survival relative to DMSO control, bortezomib = 0%); higher = less cytotoxic
How it was run: (§2)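 Reported values are percent survival from duplicate wells, averaged. Fifteen myeloid leukaemia cell lines were treated in 384-well plates with compounds at 1, 10, 100, 1000 or 10000 nM for 72 h at 37 °C in 5% CO2. Signals from CellTiter-Glo luminescence were scaled with vehicle as 100% and a 10 µM positive control as 0%.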

[4] = system: HEL; test: as above
How it was run: as §2

[5] = system: HL-60; test: as above
How it was run: as §2

[6] = system: K-562; test: as above
How it was run: as §2

[7] = system: KCL-22; test: as above
How it was run: as §2

[8] = system: KG-1; test: as above
How it was run: as §2

[9] = system: KU-812; test: as above
How it was run: as §2

[10] = system: LAMA-84; test: as above
How it was run: as §2

[11] = system: ML-2; test: as above
How it was run: as §2

[12] = system: MOLM-13; test: as above
How it was run: as §2

[13] = system: MV4-11; test: as above
How it was run: as §2

[14] = system: Mono-Mac-6; test: as above
How it was run: as §2

[15] = system: NOMO-1; test: as above
How it was run: as §2

[16] = system: SHI-1; test: as above
How it was run: as §2

[17] = system: THP-1; test: as above
How it was run: as §2

[18] = system: HL-60; test: area under dose-response curve (viability, 1 nM-10 uM) (fraction (0-1)); higher = more sensitive
How it was run: as §1

Clc1cc(Cl)c(OCC#CI)cc1Cl [Haloprogin]
Conditions	IC50 (cell viability) [nM]
[1]	2520

cell viability [%], [2]
Conditions	0.001 µM	0.01 µM	0.1 µM	1 µM	10 µM
co-treatment: AZD3965 100 nM	103 ± 1.2	102 ± 1.6	104 ± 1.6	99.73 ± 0.77	3.01 ± 0.9
co-treatment: DMSO vehicle	102 ± 2.9	103 ± 4.5	106 ± 3.3	104 ± 7.4	57.3 ± 15
co-treatment: GSK2194069 100 nM	95.5 ± 3.3	107 ± 6.9	96.4 ± 4.7	105 ± 11	71.4 ± 8.5
co-treatment: pictilisib 100 nM	92.6 ± 1.3	96.3 ± 7.1	107 ± 6.6	105 ± 14	14.4 ± 5.2

Conditions	area under dose-response curve, co-treatment: AZD3965 100 nM	area under dose-response curve, co-treatment: DMSO vehicle	area under dose-response curve, co-treatment: GSK2194069 100 nM	area under dose-response curve, co-treatment: pictilisib 100 nM	cell viability, 1 nM [%]	cell viability, 10 nM [%]	cell viability, 100 nM [%]	cell viability, 1000 nM [%]	cell viability, 10000 nM [%]
[3]	–	–	–	–	120	93	104	71.5	0.185
[4]	–	–	–	–	103	101	106	106	0.615
[5]	–	–	–	–	92.2	109	108	109	51.4
[6]	–	–	–	–	93.8	91.4	92.6	95.6	18.1
[7]	–	–	–	–	95.9	97.1	104	73.9	2.51
[8]	–	–	–	–	108	101	101	101	0.829
[9]	–	–	–	–	104	95	107	80.6	2.77
[10]	–	–	–	–	94.4	94.6	99.9	101	21.7
[11]	–	–	–	–	106	108	113	102	-0.066
[12]	–	–	–	–	100	113	112	108	6.57
[13]	–	–	–	–	109	98	101	89	0.356
[14]	–	–	–	–	103	95.7	98.8	94.1	0.149
[15]	–	–	–	–	109	103	109	98.2	0.243
[16]	–	–	–	–	97.8	112	107	99.5	62.6
[17]	–	–	–	–	101	97.4	100	74	0.288
[18]	0.125	0.032	< 0.0301	0.0952	–	–	–	–	–

Source: the supplement of paper PMC8671470
